“Also recorded” adds a separate entry of the source.
How the values were obtained:
[1] = system: glomerular epithelial cells GEC; test: Intracellular H2O2 generation in GEC (DCF fluorescence); type: cell-based, rat; conditions: PAN 1.5 mM; CM, PIP, RN or pyruvate 10 mM
Experimental: The principle of this method is that the oxidation of 2′,7′-dichlorofluorescin-diacetate (DCFH-DA) in the presence of H2O2 produces the highly fluorescent compound 2′,7′-dichlorofluroescin (DCF) which can be measured by fluorometer. The intracellular generation of H2O2 in GEC was tested utilizing the microplate assay procedure described by Rosenkranz et al (J. Immunol. Methods, 1992, 156:39-45.). In brief, confluent GEC were harvested by trypsin and suspended in HBSS. After an equilibration period at 37° C. with constant shaking, they were transferred to a microplate (2×10^5-1×10^6 cells/well) and then incubated at 37° C. with equal volumes of DCFH-DA (10 μl/ml) and PAN (1.5 mM) for the planned time period. At the end of the incubation, the fluorescent intensity of the cell suspension was read using a fluorescence spectrophotometer (wavelength 485/535 nm) capable of reading microtiter plates.

[2] = system: cytochrome P450; test: Cytochrome P450 content of microsome fraction (CO difference spectrum); conditions: for CYP content in kidney / glomeruli: PAN-treated rats, day 7
Experimental: Male Sprague-Dawley rats weighing 200-250 g were injected either saline or a single intravenous injection of PAN (Sigma, St. Louis) in a dose of 7.5 mg/100g BW (day 0) as described in Ueda et al, 19996, Kidney Intl. 49:370-373. Animals were housed in separate metabolic cages and allowed free access to rat chow (Purina). Daily urine protein excretion was determined and animals were sacrificed on day 7. Blood was obtained for the measurement of serum albumin and the evaluation of renal function as measured by blood urea nitrogen (BUN) and plasma creatinine. Cell fraction of the glomeruli was prepared for bleomycin detectable iron assay. The microsome fraction was utilized for the measurement of CYP content.

[3] = Weight loss/gain of rats before and after treatments (PAN-induced nephrotic syndrome); type: in vivo, rat; conditions: for Body weight After Treatment (day7): rats, day 7, PAN 7.5 mg/100 g BW iv, CM 120 mg/kg ip twice a day, PB 400 mg/kg ip every other day, means ± SE
Experimental: Two different general CYP inhibitors were used, cimetidine (CM) and piperonyl butoxide (PB). Cimetidine has imidazole and cyano groups that inhibit CYP by interacting with the heme moiety. […] To determine the effect of the CYP inhibitors in PAN- induced nephrotic syndrome, CM (120 mg/kg BW) was administered intraperitoneal 1 h prior to PAN injection and then twice a day. Piperonyl butoxide (PB) which yields a metabolite that binds to the heme moiety of CYP, was given intraperitoneal (400 mg/kg BW) 4h before PAN injection and then every other day.
Also, the CYP2B1 inhibitor piperine (PIP), a methylenedioxyphenyl compound found in black and red pepper was used. PIP is believed to inhibit CYP2B1 by forming an inhibitory complex therewith. PIP was administered at a dose of 85 mg/kg of body weight (BW) by an intraperitoneal injection 16 hours prior to PAN injection and then once a day.

[4] = system: HO-1; test: HO-1 induction in GEC exposed to PAN (western blot); type: cell-based, rat; conditions: PIP 0.2 mM, CM 2 mM, pyruvate 10 mM
From the text: (§1) The microsome fraction obtained was subjected to SDS-page electrophoresis in 1 mm slab gels. The separated forms were transferred from gel to a nitrocellulose sheet using a Mini Trans-blot electroblotting unit. The primary antibodies were monoclonal anti-HO-1 (OSA-111, StressGen, Victoria, BC, Canada) and monoclonal anti-CYP2B1 (PM25, Oxford Biomedical Research, Oxford, Mich., USA). Subsequent to primary and secondary antibody (peroxidase-labeled) treatment, the blots were visualized by enhanced chemiluminescence method.

[5] = system: ferritin; test: Ferritin immunohistochemistry in kidney of PAN-treated rats; type: in vivo, rat
Experimental: Kidney cortical sections were fixed in 10% buffered formalin for 6 hours and embedded in paraffin. After deparaffinization and antigen retrieval, the sections were immunolabeled and visualized according to an avidin-biotin complex (ABC) method. The primary antibody for detection of ferritin was polyclonal anti-Ferritin (L subunit) antibody (605022; Boehringer Mannheim Corp., Indianapolis, Ind., USA).

[6] = system: CYP2B1; test: CYP2B1 content in GEC exposed to PAN (western blot); type: cell-based, rat; conditions: PAN 1.5 mM for 2 hr at 37° C.; CM 2 mM, PIP 0.2 mM, pyruvate 10 mM
From the text: as §1

[7] = system: glomerular epithelial cells GEC; test: PAN induced catalytic iron release from GEC (bleomycin detectable iron); type: cell-based, rat; conditions: PAN 1.5 mM 1 h; preincubation CM 2 mM, PB 25 μM, RN 1 mM, PIP 0.2 mM, pyruvate 10 mM
Experimental: Iron capable of catalyzing free radical reactions was measured by bleomycin detectable iron assay as described by Gutteridge et al, 1981, Biochem. J. 199:263-265, Gutteridge et al, 1982, Biochem. J. 206:605-609, Baliga et al, 1993, Bioche. J. 291:901-905, Baliga et al, 1996, Kidney Int. 49:362-369, Baliga et al, Kidney Int. 53:394-401, Ueda et al, 1996, Kidney Int. 49:370-373, Baliga et al, 1998, Kidney Int. 54:1562-1569.
Confluent cell monolayer was washed three times with Chelex-treated HBSS to remove as much contaminating iron as possible. The GEC monolayer was then incubated in Chelex-treated HBSS with cytotoxic dose of PAN for a period time at 37° C. before substantial cell killing and after significant iron release occurs (1.5 mM, 60 min, based on a time course study on iron release induced by PAN, data not shown). The incubation medium was then collected for the measurement of catalytic iron using bleomycin detectable iron assay as mentioned above. To determine the effect of CYP inhibitors on the iron release, GEC monolayer was preincubated with CM (2 mM), RN (1 mM, as a control of CM) for 30 min or PB (25 uM) for 60 min in Chelex-treated HBSS at 37° C. After the incubation, the medium with CYP inhibitor was discarded and then the cell monolayers were washed twice with chelex-treated HBSS prior to the incubation of PAN.

[8] = system: CYP2B1; test: CYP2B1 content in glomeruli (immunohistochemistry, western blot); type: in vivo, rat; conditions: PAN-treated rats, 6 hours to day 7
From the text: as §1, with “method. Kidney cortical sections were fixed in 10% buffered formalin for 6 hours and embedded in paraffin. After deparaffinization and antigen retrieval, the sections were immunolabeled and visualized according to an avidin-biotin complex (ABC) method. The primary antibody for detection of ferritin was polyclonal anti-Ferritin (L subunit) antibody (605022; Boehringer Mannheim Corp., Indianapolis, Ind., USA).” for “method.”

| Compound | intracellular H2O2 generation in GEC [1] | CYP content in kidney / glomeruli [2] | Body weight After Treatment (day7) [3] [g] | HO-1 induction in GEC [4] | ferritin content in the glomeruli and the tubules [5] | CYP2B1 content in GEC [6] | bleomycin detectable (catalytic) iron release from GEC [7] | CYP2B1 content in the glomeruli [8] | CYP content in the liver ([2]; PAN treated vs untreated rats) | ascites and weight gain at the time of sacrifice ([3]; compared to control animals and those treated with CYP inhibitors) |
| --- | --- | --- | --- | --- | --- | --- | --- | --- | --- | --- |
| CN/C(=N/CCSCc1nc[nH]c1C)NC#N [CM, cimetidine] | significantly decreased | significantly preserve | 253 ± 9 | significantly prevented the induction | markedly reduced the up-regulation | preserved | drastically prevents the increase; also recorded: prevented the increase | preserved | – | – |
| CN(C)c1ncnc2c1ncn2[C@@H]1O[C@H](CO)[C@@H](N)[C@H]1O [PAN, puromycin aminonucleoside] | marked increase | not detectable | 291 ± 8 | marked induction | significant increase | significant reduction | significant increase | marked decrease | no difference | developed ascites and significant weight gain |
